From patent publication US20160002267A1, “BENZYL-SUBSTITUTED PYRAZOLOPYRIDINES AND USE THEREOF” (BAYER PHARMA AKTIENGESELLSCHAFT, priority 2013, published 2016)

Assays:
[1] = Determination of pharmacokinetic parameters following intravenous and oral administration; assay type: in vivo, rat; details: rats, intravenous administration of 0.3 mg/kg and peroral administration of 1 mg/kg
Procedure: The pharmacokinetic parameters of the compounds of the formula (I) according to the invention are determined in male CD-1 mice, male Wistar rats and female beagles. Intravenous administration is via a formulation of species-specific plasma/DMSO in the case of mice and rats and via a water/PEG400/ethanol formulation in the case of dogs. For all species, oral administration of the dissolved substance via gavage is carried out based on a water/PEG400/ethanol formulation. The removal of blood from rats is simplified by inserting a silicone catheter into the right Vena jugularis externa prior to substance administration. The surgical intervention takes place at least one day prior to the experiment with isofluran anesthesia and administration of an analgetic (atropine/rimadyl (3/1) 0.1 ml s.c.). The removal of blood (generally more than 10 times) takes place in a time window which contains terminal times of at least 24 to a maximum of 72 hours after administration of the substance. The blood is removed into heparinized tubes. The blood plasma is then obtained by centrifugation; if required, it can be stored at −20° C. until further processing.
An internal standard (this can also be a chemically unrelated substance) is added to the samples of the compounds of the formula (I) according to the invention, calibration samples and qualifiers, and the protein is precipitated using excess acetonitrile. After addition of a buffer solution, which is adapted to the LC conditions, and subsequent vortexing, the mixture is centrifuged at 1000 g. The supernatant is examined by LC-MS/MS using C18-reversed-phase columns and variable mobile phase mixtures. The substances are quantified by peak heights or areas using extracted ion chromatograms of specific selected ion monitoring experiments.
The plasma concentration/time plots determined are used to calculate the pharmacokinetic parameters such as AUC (Area Under the Curve), Cmax, t1/2 (terminal half life), F (bioavailability), MRT (mean residence time) and CL (clearance), using a validated pharmacokinetic calculation program.
Since the substance quantification is performed in plasma, it is necessary to determine the blood/plasma distribution of the substance in order to be able to adjust the pharmacokinetic parameters correspondingly. For this purpose, a defined amount of substance is incubated in heparinized whole blood of the species in question in a rocking roller mixer for 20 min. After centrifugation at 1000 g, the plasma concentration is measured (by means of LC-MS/MS; see above) and determined by calculating the quotient of the Cblood/Cplasma values.

[2] = molecular target: T1, guanylate cyclase (Rattus norvegicus, UniProt P19686+P20595); assay: Effect on a recombinant guanylate cyclase reporter cell line; assay type: cell-based
T1 construct: expressed in transfected cells; host or cells: recombinant reporter cell line
T1 sequence (P20595 1-619): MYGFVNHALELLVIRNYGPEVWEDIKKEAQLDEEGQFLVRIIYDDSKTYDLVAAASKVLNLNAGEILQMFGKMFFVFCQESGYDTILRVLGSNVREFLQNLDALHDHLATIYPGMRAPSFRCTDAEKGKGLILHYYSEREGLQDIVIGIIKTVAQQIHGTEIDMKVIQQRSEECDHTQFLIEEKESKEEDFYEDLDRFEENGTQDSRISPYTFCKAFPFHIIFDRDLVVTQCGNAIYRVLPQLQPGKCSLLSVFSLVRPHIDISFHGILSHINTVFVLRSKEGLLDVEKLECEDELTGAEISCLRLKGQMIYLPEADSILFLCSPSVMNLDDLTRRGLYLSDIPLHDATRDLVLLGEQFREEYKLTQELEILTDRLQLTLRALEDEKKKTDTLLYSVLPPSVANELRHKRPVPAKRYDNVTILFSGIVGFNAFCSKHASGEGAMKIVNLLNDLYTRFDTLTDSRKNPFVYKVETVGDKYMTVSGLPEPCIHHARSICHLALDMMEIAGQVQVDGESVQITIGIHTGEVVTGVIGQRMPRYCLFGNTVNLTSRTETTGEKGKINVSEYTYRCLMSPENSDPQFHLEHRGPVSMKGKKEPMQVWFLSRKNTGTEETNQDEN
T1 sequence (P19686 1-690): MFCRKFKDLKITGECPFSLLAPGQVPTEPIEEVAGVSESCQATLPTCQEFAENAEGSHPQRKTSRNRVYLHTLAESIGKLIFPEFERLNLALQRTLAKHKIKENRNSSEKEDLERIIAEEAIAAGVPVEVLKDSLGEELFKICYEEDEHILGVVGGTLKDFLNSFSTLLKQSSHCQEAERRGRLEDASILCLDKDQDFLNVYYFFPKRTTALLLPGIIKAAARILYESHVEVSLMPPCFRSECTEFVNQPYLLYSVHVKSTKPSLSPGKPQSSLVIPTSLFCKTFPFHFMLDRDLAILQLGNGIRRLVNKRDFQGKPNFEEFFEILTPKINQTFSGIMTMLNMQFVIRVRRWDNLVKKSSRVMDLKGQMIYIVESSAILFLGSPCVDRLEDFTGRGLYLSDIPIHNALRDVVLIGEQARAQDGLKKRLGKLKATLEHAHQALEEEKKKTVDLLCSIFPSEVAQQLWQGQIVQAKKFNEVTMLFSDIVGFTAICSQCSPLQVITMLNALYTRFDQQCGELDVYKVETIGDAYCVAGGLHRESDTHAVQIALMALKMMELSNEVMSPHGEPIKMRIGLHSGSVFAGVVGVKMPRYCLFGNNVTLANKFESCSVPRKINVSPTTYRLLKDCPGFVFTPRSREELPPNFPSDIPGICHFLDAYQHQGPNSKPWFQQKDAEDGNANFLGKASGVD
Procedure: The cellular activity of the compounds according to the invention is determined using a recombinant guanylate cyclase reporter cell line, as described in F. Wunder et al., Anal. Biochem. 339, 104-112 (2005).

MRT ([1]; male, Wistar, rat, plasma): 6.4 h
half-life ([1]; male, Wistar, rat, plasma): 468 min
AUCnorm [1]: 0.83 kg·h/L
CLblood [1]: 1.42 L/h/kg
F [1]: 39.0%
MEC (minimum effective concentration) [2]: 0.1 µM
SMILES: CC1(C(F)(F)F)C(=O)Nc2nc(-c3nn(Cc4ccccc4F)c4ncc(F)cc34)nc(NCCC(F)(F)F)c21 (single isomer, unassigned) [Example 1-1, 2-[5-Fluoro-1-(2-fluorobenzyl)-1H-pyrazolo[3,4-b]pyridin-3-yl]-5-methyl-5-(trifluoromethyl)-4-[(3,3,3-trifluoropropyl)amino]-5,7-dihydro-6H-pyrrolo[2,3-d]pyrimidin-6-one]
